Experimental findings from PMC4773817 (2016) are described below.

SMILES strings stand for the structures.

Assay [1] relates to HP1 (DNA, hairpin) GGTACGTGGCTGAGGCCAGTGGGTAGGGCGGGTTGGCCTCAGCCACGTACC
The assay is described as follows: luminescence enhancement. The note with it: 1.1-fold emission enhancement.

For assay [2], the system named is PS2.M (DNA, G4) GTGGGTAGGGCGGGTTGG
The assay is described as follows: fluorescent intercalator displacement (G4-FID). The note with it: Tris-HCl buffer; thiazole orange displaced.

In assay [3] the test system is F10T (DNA, hairpin, hexaethylene glycol (HEG) linker between nucleotides 8 and 9) TATAGCTATATAGCTATAT
Description: FRET melting. Particulars: 3 μM compound, 0.2 μM DNA; no significant variation.

Assay [4] deals with PS2.M 5'-side loop n=1 (DNA, G4) GTGGGAGGGCGGGTTGG
Description: luminescence enhancement. The note with it: 4.2-fold emission enhancement.

Assay [5] relates to FPS2.MT (labelled PS2.M) (DNA, G4) GTGGGTAGGGCGGGTTGG
Description: FRET melting. Particulars: not printed (procedure from ref. 50); 3 μM compound, 0.2 μM DNA.

For assay [6], the system named is HP5 (DNA, hairpin) ACGTGGCTGAGGCCAGTGGGTAGGGCGGGTTGGCCTCAGCCACGT
The assay is described as follows: luminescence enhancement. Particulars: HP5 formed in assay without Nt.BbvCI.

For assay [7], the system named is CCR5-DEL (DNA, single strand) CTCATTTTCCATACATTAAAGATAGTCAT
Description: luminescence enhancement. The note with it: 1 μM compound, 5 μM DNA, 10 mM Tris, pH 7.4.

The test system of assay [8] is ds26 (DNA, duplex) CAATCGGATCGAATTCGATCCGATTG
Description: FRET melting competition. Particulars: ds26 (2 μM, 10-fold excess) as competitor of 0.2 μM labelled PS2.M; 3 μM compound; no significant change.

Assay [9] has as its system PS2.M 5'-side loop n=17 (DNA, G4) GTGGGTTTTTTTTATTTTTTTTGGGCGGGTTGG
The assay is described as follows: luminescence enhancement. The note with it: 9.2-fold emission enhancement.

Regarding `[Ir+3].[Ir+3].[c-]1ccccc1-c1ccc2ccccc2n1.[c-]1ccccc1-c1ccc2ccccc2n1.[c-]1ccccc1-c1ccc2ccccc2n1.[c-]1ccccc1-c1ccc2ccccc2n1.c1ccc(N(CCCCCN(c2ccccn2)c2ccccn2)c2ccccn2)nc1`, the binding result is listed as “weak” in assay [1]; “no” in assay [3]; “yes” in [4]; “weak” in [6]; “weak” in assay [7]; “weak” in assay [8]. Moreover, the binding result in assay [9] was “yes”. The G4DC50 in [2] was determined as 7.0 µM. For the same molecule, in assay [5], the ΔTm is ~ 12 °C.
